Where “and” joins values, the source holds several entries; their conditions need not be identical. Equal entries are not always repeated. Entries after “also recorded” stand apart in the source; their conditions may differ. Peptide text beside a SMILES is read from it.
What was measured:
human α-thrombin = molecular target: T1, human α-thrombin (Homo sapiens, UniProt P00734); assay: Thrombin amidolytic activity assay with chromogenic substrate S2238; format: biochemical; settings: for Hill slope of thrombin amidolytic inhibition: 0 min pre-incubation where stated; for IC50: IC50 of inhibition of thrombin amidolytic activity, thrombin 0.81 nM, S2238 100 μM, without pre-incubation (0 min) where stated
T1 construct: residues in the termini of the light chain; purchased Chemo-Sero-Therapeutic Research Institute (Kaketsuken, Japan), as a gift, not bought
Procedure: Thrombin amidolytic activity assays for all peptides were performed in 96-wells microtiter plates in 50 mM Tris buffer (pH 7.4) containing 100 mM NaCl and 1 mg/ml bovine serum albumin. […] The rates of formation of p-nitroaniline were followed by measuring the absorbance at 405 nm for 10 min with a Tecan InfinitePro M200 microplate reader from Tecan (Männedorf, Switzerland). Dose-response curves were fitted using the GraphPad Prizm software (San Diego, Calif., USA) to calculate IC50 values and Hill coefficients. To measure the inhibitory constants, different concentrations of S2238 were used and the residual velocities were determined using the Morrison's tight binding equation. Inhibition of thrombin fibrinogenolytic activity of peptides were tested by measuring absorbance at 650 nm using a Sunrise microplate reader from Tecan (Männedorf, Switzerland) as described previously [Koh C Y, et al., J Biol Chem 282: 29101-13 (2007)]. The selectivity of avathrin was examined against 13 serine proteases (FIG. 5). Effects of avathrin on the amidolytic activities of these serine proteases were determined using respective chromogenic substrates. […] Avathrin (150 μM) was incubated with thrombin (5 μM), in 50 mM Tris buffer (pH 7.4) containing 150 mM NaCl and 1 mg/ml BSA. After different incubation times, reactions were quenched with 1% TFA (pH 1.8) and loaded onto a Jupiter Proteo column (4 μm, 90 Å, 100×1.0 mm) attached to a Dionex nano-HPLC system from Thermo Fisher Scientific (Waltham, Mass., USA) and eluted using an acetonitrile gradient with 0.05% TFA and 99.95% MilliQ water as eluent A and 0.05% TFA, 19.95% MilliQ water and 80% ACN as eluent B. Masses of all peaks were measured to identify cleavage products, which were subsequently quantified by integrating the peaks and calculating the area under the curves. To measure the effect of different pre-incubation times on the thrombin inhibitory activity, amidolytic assays were performed for various incubation times (up to 36 h).

thrombin [1] = molecular target: T2, thrombin (Homo sapiens, UniProt P00734); assay: Inhibition of thrombin fibrinogenolytic activity (fibrinogen clotting time); format: biochemical
T2 construct: residues in the termini of the light chain; and in the autolysis loop and C-terminus of the heavy chain; purchased Chemo-Sero-Therapeutic Research Institute (Kaketsuken, Japan), as a gift, not bought
Procedure: Thrombin amidolytic activity assays for all peptides were performed in 96-wells microtiter plates in 50 mM Tris buffer (pH 7.4) containing 100 mM NaCl and 1 mg/ml bovine serum albumin. Typically, 100 μl of peptide and 100 μl of thrombin were pre-incubated for different durations before 100 μl of S2238 was added to the reaction wells. The rates of formation of p-nitroaniline were followed by measuring the absorbance at 405 nm for 10 min with a Tecan InfinitePro M200 microplate reader from Tecan (Männedorf, Switzerland). Dose-response curves were fitted using the GraphPad Prizm software (San Diego, Calif., USA) to calculate IC50 values and Hill coefficients. To measure the inhibitory constants, different concentrations of S2238 were used and the residual velocities were determined using the Morrison's tight binding equation. Inhibition of thrombin fibrinogenolytic activity of peptides were tested by measuring absorbance at 650 nm using a Sunrise microplate reader from Tecan (Männedorf, Switzerland) as described previously [Koh C Y, et al., J Biol Chem 282: 29101-13 (2007)]. The selectivity of avathrin was examined against 13 serine proteases (FIG. 5). Effects of avathrin on the amidolytic activities of these serine proteases were determined using respective chromogenic substrates. Cleavage of avathrin by thrombin. Avathrin (150 μM) was incubated with thrombin (5 μM), in 50 mM Tris buffer (pH 7.4) containing 150 mM NaCl and 1 mg/ml BSA. After different incubation times, reactions were quenched with 1% TFA (pH 1.8) and loaded onto a Jupiter Proteo column (4 μm, 90 Å, 100×1.0 mm) attached to a Dionex nano-HPLC system from Thermo Fisher Scientific (Waltham, Mass., USA) and eluted using an acetonitrile gradient with 0.05% TFA and 99.95% MilliQ water as eluent A and 0.05% TFA, 19.95% MilliQ water and 80% ACN as eluent B. Masses of all peaks were measured to identify cleavage products, which were subsequently quantified by integrating the peaks and calculating the area under the curves. To measure the effect of different pre-incubation times on the thrombin inhibitory activity, amidolytic assays were performed for various incubation times (up to 36 h).

thrombin [2] = molecular target: T2, thrombin; assay: Cleavage of peptide by thrombin (RP-HPLC, ESI-MS); format: biochemical; settings: peptide incubated with thrombin (30:1); listed as K10β-avathrin
Procedure: A. Evaluation of avathrin cleavage by thrombin by HPLC chromatograms. Avathrin (150 μM) was incubated with thrombin (5 μM) for various times and the reaction mixtures were separated using RP-HPLC; the masses of the cleavage products were analyzed with ESI-MS. At 0 min (upper panel), a single peak corresponding to full length avathrin (mass 3139 Da) was identified. At 120 min (middle panel), two new peaks corresponding to N-terminal cleavage product (^1[…]^10 of SEQ ID NO: 1; mass 982 Da) and C-terminal cleavage product ([…] (SEQ ID NO: 4); mass 2176 Da) were identified in addition to avathrin peak. At 600 min (lower panel), two peaks corresponding to the N- and C-terminal cleaved products were observed while avathrin peak was not observed, indicating complete cleavage. B. Time-dependent cleavage of avathrin by thrombin. Relative percentages of avathrin, its N- and C-terminal cleavage products were quantified by calculating areas under the curve. Each data point is the mean±S.D. of at least three independent experiments. C. Effect of thrombin cleavage on inhibitory properties of avathrin. Avathrin was incubated with thrombin (0.81 nM) for up to 36 h, and assayed at different time points for its ability to inhibit thrombin amidolytic activity on the chromogenic substrate S2238. […]
Thrombin amidolytic activity assays for all peptides were performed in 96-wells microtiter plates in 50 mM Tris buffer (pH 7.4) containing 100 mM NaCl and 1 mg/ml bovine serum albumin. […] The rates of formation of p-nitroaniline were followed by measuring the absorbance at 405 nm for 10 min with a Tecan InfinitePro M200 microplate reader from Tecan (Männedorf, Switzerland). […] To measure the inhibitory constants, different concentrations of S2238 were used and the residual velocities were determined using the Morrison's tight binding equation. Inhibition of thrombin fibrinogenolytic activity of peptides were tested by measuring absorbance at 650 nm using a Sunrise microplate reader from Tecan (Männedorf, Switzerland) as described previously [Koh C Y, et al., J Biol Chem 282: 29101-13 (2007)]. […] Effects of avathrin on the amidolytic activities of these serine proteases were determined using respective chromogenic substrates. […] After different incubation times, reactions were quenched with 1% TFA (pH 1.8) and loaded onto a Jupiter Proteo column (4 μm, 90 Å, 100×1.0 mm) attached to a Dionex nano-HPLC system from Thermo Fisher Scientific (Waltham, Mass., USA) and eluted using an acetonitrile gradient with 0.05% TFA and 99.95% MilliQ water as eluent A and 0.05% TFA, 19.95% MilliQ water and 80% ACN as eluent B. Masses of all peaks were measured to identify cleavage products, which were subsequently quantified by integrating the peaks and calculating the area under the curves. […]

[3] = tested on: FeCl3-induced carotid artery thrombosis; assay: Ferric chloride-induced carotid artery thrombosis model; format: in vivo, C57BL/6 male mice; settings: mice, 10% FeCl3
Procedure: All animal experiments were carried out under protocol 041/12 approved by Institutional Animal Care and Use Committee, National University of Singapore. The ferric chloride induced carotid artery thrombosis model was performed as described previously [Eckly A, et al., J Thromb Haemost 9: 779-89 (2011)] with minor modifications. Typically, C57BL/6 male mice (9-11 weeks old, 24.5-27.5 g) were anesthetized with an intraperitoneal injection of ketamine (75 mg/kg) and medetomidine (1 mg/kg). 100 μL of different doses of avathrin were injected into the mice via tail vein. The right carotid artery was dissected using blunt dissection and a vascular injury was caused applying filter paper of 2 mm×2 mm saturated with FeCl3 on top of the carotid artery. After 3 min, the filter paper was removed and the vessel was washed with sterile normal saline. To determine the time to occlusion, a miniature Doppler flow probe (Transonic Systems Inc., Ithaca, N.Y., USA) was placed around the carotid artery and blood flow was recorded using a Transonic® flow meter from ADInstruments (Dunedin, New Zealand). The maximal time for monitoring the blood flow after injury was 30 min. Mice were euthanized by cervical dislocation immediately after the completion of the experiment and prior to recovery from anesthesia.

Compound	Hill slope of thrombin amidolytic inhibition (human α-thrombin)	Hill slope of thrombin amidolytic inhibition, 10 min pre-incubation (human α-thrombin; 10 min pre-incubation)	IC50 (human α-thrombin)	Ki (human α-thrombin; Ki(nM), Table 2)	Hill Slope (human α-thrombin; Table 2)	effect on fibrinogen clotting time / thrombin fibrinogenolytic activity (thrombin [1])	time to complete cleavage by thrombin (thrombin [2])	fold gain in activity compared with avathrin (human α-thrombin)	time to occlusion (TTO) ([3]; 3 mg/kg intravenously)	time to occlusion (TTO) ([3]; 10 mg/kg intravenously)
CC[C@H](C)[C@H](N)C(=O)N[C@@H](CO)C(=O)N[C@@H](CCCCN)C(=O)N[C@@H](CCC(N)=O)C(=O)NCC(=O)N[C@@H](CC(C)C)C(=O)NCC(=O)NCC(=O)N[C@@H](CC(=O)O)C(=O)N[C@@H](Cc1ccccc1)C(=O)N[C@@H](CCC(=O)O)C(=O)N[C@@H](CCC(=O)O)C(=O)N[C@H](C(=O)N1CCC[C@H]1C(=O)N[C@@H](CO)C(=O)N[C@@H](CC(=O)O)C(=O)N[C@@H](CCC(=O)O)C(=O)N[C@H](C(=O)N[C@H](C(=O)N[C@@H](CCC(=O)O)C(=O)O)[C@@H](C)CC)[C@@H](C)CC)[C@@H](C)CC [IS20] (H-ISKQGLGGDFEEIPSDEIIE-OH; N-terminus and C-terminus assumed)	0.86±0.02	0.87±0.01	12.4 ± 0.32 nM	5.76 ± 0.23 nM	0.86 ± 0.02	inhibited the fibrinogenolytic activity of thrombin in a dose-dependent manner; also recorded: prolonged fibrinogen clotting times in a dose dependent manner	–	–	–	–
CC[C@H](C)[C@H](NC(=O)[C@H](CCCNC(=N)N)NC(=O)[C@@H]1CCCN1C(=O)[C@@H](NC(=O)[C@H](C)NC(=O)[C@@H](NC(=O)[C@H](CCC(N)=O)NC(=O)[C@H](Cc1c[nH]cn1)NC(=O)CNC(=O)CNC(=O)[C@@H](N)CO)[C@@H](C)O)C(C)C)C(=O)N[C@@H](CO)C(=O)N[C@@H](CCCCN)C(=O)N[C@@H](CCC(N)=O)C(=O)NCC(=O)N[C@@H](CC(C)C)C(=O)NCC(=O)NCC(=O)N[C@@H](CC(=O)O)C(=O)N[C@@H](Cc1ccccc1)C(=O)N[C@@H](CCC(=O)O)C(=O)N[C@@H](CCC(=O)O)C(=O)N[C@H](C(=O)N1CCC[C@H]1C(=O)N[C@@H](CO)C(=O)N[C@@H](CC(=O)O)C(=O)N[C@@H](CCC(=O)O)C(=O)N[C@H](C(=O)N[C@H](C(=O)N[C@@H](CCC(=O)O)C(=O)O)[C@@H](C)CC)[C@@H](C)CC)[C@@H](C)CC [Peptide K10R] (H-SGGHQTAVPRISKQGLGGDFEEIPSDEIIE-OH; N-terminus and C-terminus assumed)	1.10±0.01	–	1.15 ± 0.45 nM	–	1.10 ± 0.01	–	3 h	5 fold	–	–
hirulog-1: peptidyl bivalent thrombin inhibitor used as comparator drug	–	–	–	–	–	–	–	–	9.70 ± 3.15 min and 9.76 ± 3.15 min	15.22 ± 3.39 min and 15.23 ± 3.39 min

Source: patent US10906946B2, “Thrombin inhibitors” (priority 2015, dated 2021)
